Measurements published in article PMC8571282 (Nature Communications, 2021).
Where “and” joins values, the source holds several entries; their conditions need not be identical. Equal values may be shown once. Read-outs that look alike come from different tables or passages of the source.

Assays:
[1] = system: SARS-CoV-2 WA1/2020 (lineage A); assay: microbe, parasite or virus in culture; type: cell-based
[2] = system: SARS-CoV-2 CA/2020 (α, lineage B.1.1.7); assay: microbe, parasite or virus in culture; type: cell-based; details: Severe acute respiratory syndrome coronavirus 2, Vero C1008; CA/2020, VeroE6, mean n=3
[3] = system: SARS-CoV-2 SA/2020 (β, lineage B.1.351); assay: microbe, parasite or virus in culture; type: cell-based; details: Severe acute respiratory syndrome coronavirus 2, Vero C1008; SA/2020, VeroE6, mean n=3
[4] = system: SARS-CoV-2 BZ/2021 (γ, lineage P.1); assay: microbe, parasite or virus in culture; type: cell-based; details: Severe acute respiratory syndrome coronavirus 2, Vero C1008; BZ/2021, VeroE6, mean n=3
[5] = system: SARS-CoV-2-Nluc (WA1/2020-nano luciferase); assay: microbe, parasite or virus in culture; type: cell-based
[6] = system: SARS-CoV-2 gamma isolate (BZ/2021, lineage P.1); assay: microbe, parasite or virus in culture; type: cell-based; details: Severe acute respiratory syndrome coronavirus 2
[7] = system: well-differentiated primary human airway epithelium cultures; type: cell-based
[8] = system: SARS-CoV-2 (WA1/2020 and VOC α, β, γ); assay: microbe, parasite or virus in culture; type: cell-based; details: Severe acute respiratory syndrome coronavirus 2, Vero C1008; read-out: Half-maximal effective concentrations (EC50), range
[9] = parameters: method as in Mackman et al 2021 (JMC 2021, 64(8), 5001-5017); details: rats, ref Mackman et al 2021 (JMC 2021, 64(8), 5001-5017); cited from earlier work
[10] = parameters: method as in Mackman et al 2021 (JMC 2021, 64(8), 5001-5017); details: cynomolgus macaques, ref Mackman et al 2021 (JMC 2021, 64(8), 5001-5017); cited from earlier work
in vitro [11] = details: human
in vitro [12] = details: human, % cell viability, HCT-8, 0.046 µM, 72 h
in vitro [13] = details: human; remark: listed apart in the source
[14] = Cytotoxicity assay (PrestoBlue), HEp-2; details: human, HEp-2 cells
[15] = Cytotoxicity assay (PrestoBlue), HCT-8; details: human, HCT-8 cells
[16] = Cytotoxicity assay (PrestoBlue), VeroE6; details: African green monkey, VeroE6 cells
VeroE6 cells = assay: Cytotoxicity assay (PrestoBlue), VeroE6; details: 72 h
[17] = Cytotoxicity assay (PrestoBlue), BHK-21; details: hamster, BHK-21 cells
[18] = Cytotoxicity assay (PrestoBlue), “F2” HAE; details: human
[19] = Cytotoxicity assay (PrestoBlue), “F3” HAE; details: human
“F3” primary HAE cells = assay: Cytotoxicity assay (PrestoBlue), “F3” HAE; details: F3 HAE, 72 h
[20] = Cytotoxicity assay (PrestoBlue), “M2” HAE; details: human
[21] = Cytotoxicity assay (PrestoBlue), “M6” HAE; details: human
“M6” primary HAE cells = assay: Cytotoxicity assay (PrestoBlue), “M6” HAE; details: M6 HAE, 72 h
[22] = Single-dose plasma pharmacokinetics in ferrets; details: ferret, GS-441524 IV 20 mg/kg, 20 mg/kg

With `N#C[C@@]1(c2ccc3c(N)ncnn23)O[C@H](CO)[C@@H](O)[C@H]1O` [GS-441524] the EC50 ([1]; Severe acute respiratory syndrome coronavirus 2, Vero C1008, WA1/2020, VeroE6, mean n=3) was 680 nM, the Virus yield reduction ([1]; WA1/2020, VeroE6, 5.55556 µM, vehicle = 0) was -3.43 and the EC50 [2] was 110 nM. The EC50 [3] was 340 nM, the EC50 [4] was 550 nM and the “A549-hACE2 SARS-CoV-2 Nluc (EC50 determination), normalized signal” value (“A549-hACE2 SARS-CoV-2 Nluc … normalized signal” for short) ([5]; Conc 0.005 µM, replicate values of the experiments) was 114.03. For the same compound, the “A549-hACE2 SARS-CoV-2 Nluc … normalized signal” value ([5]; Conc 0.02 µM, replicate values of Exp 1-6) was 66.74 and 93.22 and 117.07 and 119.81 and 81.21, the “A549-hACE2 SARS-CoV-2 Nluc … normalized signal” value ([5]; Conc 0.07 µM, replicate values of Exp 1-6) was 114.55 and 112.96 and 134.59 and 90.75 and the “A549-hACE2 SARS-CoV-2 Nluc … normalized signal” value ([5]; Conc 0.21 µM, replicate values of Exp 1-6) was 92.40 and 126.15. The “A549-hACE2 SARS-CoV-2 Nluc … normalized signal” value ([5]; Conc 3.333 µM, replicate values of the experiments) was 14.96 and 23.34 and 25.42, the “A549-hACE2 SARS-CoV-2 Nluc … normalized signal” value ([5]; Conc 5.56 µM, replicate values of Exp 1-6) was 3.54 and 6.01 and 4.94 and 3.43 and 3.57 and 2.25 and 0.47 and 0.46 and 0.35 and 0.41 and 5.69 and the “A549-hACE2 SARS-CoV-2 Nluc … normalized signal” value ([5]; Conc 10.000 µM, replicate values of the experiments) was 0.35 and 0.30 and 0.32 and 0.31. The “A549-hACE2 SARS-CoV-2 Nluc … normalized signal” value ([5]; Conc 16.67 µM, replicate values of Exp 1-6) was 1.67 and 0.36 (2×) and 0.34 and 1.12 and 1.72 and 1.07 and 0.18 (2×) and 0.21 and 0.23 and 0.31, the “A549-hACE2 SARS-CoV-2 Nluc … normalized signal” value ([5]; Conc 50.00 µM, replicate values of Exp 1-6) was 0.89 and 0.17 (2×) and 0.16 (3×) and 0.55 and 0.87 and 0.59 and 0.19 and 0.20 and 0.18 and the EC50 ([5]; Severe acute respiratory syndrome coronavirus 2, WA1/2020-nano luciferase, A549-ACE2, mean ± SD) was 1400 ± 900 nM. For the same compound, the EC50 [6] was 2830 nM, the “basolateral drug concentration at which epithelium integrity (TEER) was fully preserved” value [7] was at least 3 µM and the EC50 [8] was 110 to 680 nM. The “oral F” value [9] was 12%, the “oral F” value [10] was 3.4% and the CC50 at 48 h (in vitro [11]) was over 50000 nM. It also gave a viability at 72 h, 0.046 µM (in vitro [12]) of 88%, a viability at 72 h, 3.704 µM (in vitro [13]; female, % cell viability) of 90% and a CC50 at 72 h (in vitro [13]) of over 100000 nM. For the same compound, the viability at 72 h, 100 µM (in vitro [13]; % cell viability) was 62%, the viability at 72 h, 0.046 µM ([14]; % cell viability, HEp-2, 0.046 µM, 72 h) was 52% and the viability at 72 h, 100 µM ([14]; % cell viability, HEp-2, 100 µM, 72 h) was 51%. It also gave a CC50 at 72 h ([14]; CC50, HEp-2, 72 h) of over 100000 nM, a viability at 72 h, 0.046 µM ([15]; % cell viability, HCT-8, 0.046 µM, 72 h) of 74% and a viability at 72 h, 1.235 µM ([15]; % cell viability, HCT-8, 1.235 µM, 72 h) of 89%. It also gave a viability at 72 h, 100 µM ([15]; % cell viability, HCT-8, 100 µM, 72 h) of 62%, a CC50 at 72 h ([15]; CC50, HCT-8, 72 h) of over 100000 nM and a CC50 at 72 h [16] of over 100000 nM. For the same compound, the viability at 72 h, 0.046 µM ([16]; % cell viability, VeroE6, 0.046 µM, 72 h) was 60%, the viability at 72 h, 1.235 µM ([16]; % cell viability, VeroE6, 1.235 µM, 72 h) was 75% and the viability at 72 h, 3.704 µM ([16]; % cell viability, VeroE6, 3.704 µM, 72 h) was 84%. The viability at 72 h, 100 µM ([16]; % cell viability, VeroE6, 100 µM, 72 h) was 66%, the “% cell viability” value (VeroE6 cells; VeroE6, 0.046 µM, 0.046 µM) was 56% and 59% and the “% cell viability” value (VeroE6 cells; VeroE6, 1.235 µM, 1.235 µM) was 91% and 82%. For the same compound, the “% cell viability” value (VeroE6 cells; VeroE6, 3.704 µM, 3.704 µM) was 92%, the “% cell viability” value (VeroE6 cells; VeroE6, 100 µM, 100 µM) was 59% and the CC50 at 72 h [17] was over 100000 nM. It also gave a viability at 72 h, 0.046 µM ([17]; % cell viability, BHK-21, 0.046 µM, 72 h) of 64%, a viability at 72 h, 1.235 µM ([17]; % cell viability, BHK-21, 1.235 µM, 72 h) of 87% and a viability at 72 h, 0.046 µM ([18]; female, “F2” primary human airway epithelial (HAE) cells, % cell viability, F2 HAE, 0.046 µM) of 92%. It also gave a viability at 72 h, 100 µM ([18]; % cell viability, F2 HAE, 100 µM) of 86%, a CC50 at 72 h ([18]; CC50, “F2” HAE) of over 100000 nM and a viability at 72 h, 0.046 µM ([19]; female, “F3” primary human airway epithelial (HAE) cells, % cell viability, F3 HAE, 0.046 µM) of 87%. For the same compound, the viability at 72 h, 100 µM ([19]; % cell viability, F3 HAE, 100 µM) was 84%, the CC50 at 72 h ([19]; CC50, “F3” HAE) was over 100000 nM and the “% cell viability” value (“F3” primary HAE cells; 0.046 µM) was 90%. For the same compound, the “% cell viability” value (“F3” primary HAE cells; 100 µM) was 86% and 74%, the CC50 at 72 h [20] was over 100000 nM and the CC50 at 72 h [21] was over 100000 nM. The “% cell viability” value (“M6” primary HAE cells; 0.046 µM) was 87%, the “% cell viability” value (“M6” primary HAE cells; 3.704 µM) was 86% and the “plasma concentration of GS-441524” value ([22]; 0.25 h) was 40.5 and 46.6 and 24.1. The “plasma concentration of GS-441524” value ([22]; 0.48 h) was 62.4 and 57.2 and 43, the “plasma concentration of GS-441524” value ([22]; 0.58 h) was 51.5 and 48.2 and 37.8 and the “plasma concentration of GS-441524” value ([22]; 4 h) was 8.65 and 7.17. For the same compound, the “plasma concentration of GS-441524” value ([22]; 8 h) was 2.1 and 1.85 and 1.83 and the “plasma concentration of GS-441524” value ([22]; 12 h) was 0.669 and 0.467 and 0.448.
